Converted amounts (≈) assume the structure as drawn.
Legend:
[1] = target: T1, DNA gyrase (Escherichia coli) (UniProt P0AES6+P0AES4); test: In vitro antibacterial activity against gram-negative organism […] ATCC 13048; assay type: functional; conditions: Enterobacter aerogenes
[2] = target: T1, DNA gyrase (Escherichia coli); test: In vitro antibacterial against gram-negative organism Escherichia coli JUHL; assay type: functional; conditions: Escherichia coli K-12
[3] = target: T2, DNA gyrase (Staphylococcus aureus) (UniProt P0A0K8+P20831); test: In vitro antibacterial activity against gram-positive organism Staphylococcus aureus ATCC 6538p; assay type: functional
[4] = target: T1, DNA gyrase (Escherichia coli); test: In vitro antibacterial activity against gram-positive organism Streptococcus bovis A-5169; assay type: functional; conditions: Streptococcus equinus
[5] = target: T1, DNA gyrase (Escherichia coli); conditions: Escherichia coli K-12
Description: Concentration which causes 50% of the gyrase (Escherichia coli H560)-mediated maximal DNA cleavage.

[6] = target: T1, DNA gyrase (Escherichia coli); test: In vivo efficacy against Escherichia coli JUHL by subcutaneous administration; assay type: functional, organism-based; conditions: Escherichia coli K-12
[7] = target: T2, DNA gyrase (Staphylococcus aureus); test: In vivo efficacy against Staphylococcus aureus NCTC-10649M after subcutaneous administration; assay type: functional, organism-based
[8] = target: T2, DNA gyrase (Staphylococcus aureus); test: In vivo efficacy against Staphylococcus aureus NCTC-10649M after oral administration; assay type: functional, organism-based
[9] = target: T1, DNA gyrase (Escherichia coli); test: In vitro antibacterial activity against gram-negative organism Klebsiella pneumoniae ATCC 8045; assay type: functional
[10] = target: T1, DNA gyrase (Escherichia coli); test: In vivo efficacy against Escherichia coli JUHL after oral administration; assay type: functional, organism-based; conditions: Escherichia coli K-12
[11] = target: T1, DNA gyrase (Escherichia coli); test: In vitro antibacterial activity against gram-negative organism Prov. stuartii CMX-640; assay type: functional; conditions: Providencia stuartii
[12] = target: T1, DNA gyrase (Escherichia coli); test: In vitro antibacterial activity against gram-positive organism Enterococcus faecium ATCC 8043; assay type: functional
[13] = target: T2, DNA gyrase (Staphylococcus aureus); test: In vitro antibacterial activity against gram-positive organism Staphylococcus aureus NCTC-10649M; assay type: functional
[14] = target: T2, DNA gyrase (Staphylococcus aureus); test: In vitro antibacterial activity against gram-positive organism Staphylococcus aureus 1775; assay type: functional
[15] = system: Enterococcus faecium; test: Inhibitory activity against enterococcus faecium Van A; assay type: functional
[16] = system: Enterococcus faecalis; test: Inhibitory activity against enterococcus faecalis Van B; assay type: functional
[17] = system: Pseudomonas aeruginosa; test: In vivo efficacy against Pseudomonas aeruginosa 5007 following p.o. administration.
[18] = system: Streptococcus pneumoniae; test: In vivo efficacy against Strep. administration; assay type: functional
[19] = In vivo efficacy against Pseudomonas aeruginosa 5007 after subcutaneous administration; assay type: functional; conditions: Pseudomonas aeruginosa, sc; read-out: ED50
[20] = In vitro antibacterial activity against gram-negative organism Pseudomonas aeruginosa 5007; assay type: functional; conditions: Pseudomonas aeruginosa; read-out: MIC
[21] = In vitro antibacterial activity against gram-negative organism Pseudomonas aeruginosa DPHD-2862; assay type: functional; conditions: Pseudomonas aeruginosa; read-out: MIC
[22] = system: Streptococcus pyogenes; test: In vitro antibacterial activity against gram-positive organism Streptococcus pyogenes EES61; assay type: functional; conditions: Streptococcus pyogenes; read-out: MIC

T2 sequence (P0A0K8 2-644 limits assumed): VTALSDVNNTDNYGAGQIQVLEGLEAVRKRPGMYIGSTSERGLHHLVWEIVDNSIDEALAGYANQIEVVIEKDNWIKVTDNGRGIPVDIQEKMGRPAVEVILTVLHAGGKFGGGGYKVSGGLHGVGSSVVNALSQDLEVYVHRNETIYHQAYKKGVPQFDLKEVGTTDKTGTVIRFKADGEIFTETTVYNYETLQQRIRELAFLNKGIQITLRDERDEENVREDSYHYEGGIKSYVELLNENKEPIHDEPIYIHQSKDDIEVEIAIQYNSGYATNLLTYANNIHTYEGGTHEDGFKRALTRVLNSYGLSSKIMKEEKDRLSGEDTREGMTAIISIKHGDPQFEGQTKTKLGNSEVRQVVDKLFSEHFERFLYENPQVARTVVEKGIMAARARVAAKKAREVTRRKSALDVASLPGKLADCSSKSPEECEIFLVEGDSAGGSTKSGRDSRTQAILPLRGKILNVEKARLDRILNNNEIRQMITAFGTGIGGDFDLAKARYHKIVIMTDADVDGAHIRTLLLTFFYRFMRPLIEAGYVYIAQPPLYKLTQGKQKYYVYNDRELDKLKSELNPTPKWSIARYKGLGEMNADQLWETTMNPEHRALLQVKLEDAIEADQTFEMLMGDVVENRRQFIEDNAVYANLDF
T2 sequence (P20831 whole entry partner): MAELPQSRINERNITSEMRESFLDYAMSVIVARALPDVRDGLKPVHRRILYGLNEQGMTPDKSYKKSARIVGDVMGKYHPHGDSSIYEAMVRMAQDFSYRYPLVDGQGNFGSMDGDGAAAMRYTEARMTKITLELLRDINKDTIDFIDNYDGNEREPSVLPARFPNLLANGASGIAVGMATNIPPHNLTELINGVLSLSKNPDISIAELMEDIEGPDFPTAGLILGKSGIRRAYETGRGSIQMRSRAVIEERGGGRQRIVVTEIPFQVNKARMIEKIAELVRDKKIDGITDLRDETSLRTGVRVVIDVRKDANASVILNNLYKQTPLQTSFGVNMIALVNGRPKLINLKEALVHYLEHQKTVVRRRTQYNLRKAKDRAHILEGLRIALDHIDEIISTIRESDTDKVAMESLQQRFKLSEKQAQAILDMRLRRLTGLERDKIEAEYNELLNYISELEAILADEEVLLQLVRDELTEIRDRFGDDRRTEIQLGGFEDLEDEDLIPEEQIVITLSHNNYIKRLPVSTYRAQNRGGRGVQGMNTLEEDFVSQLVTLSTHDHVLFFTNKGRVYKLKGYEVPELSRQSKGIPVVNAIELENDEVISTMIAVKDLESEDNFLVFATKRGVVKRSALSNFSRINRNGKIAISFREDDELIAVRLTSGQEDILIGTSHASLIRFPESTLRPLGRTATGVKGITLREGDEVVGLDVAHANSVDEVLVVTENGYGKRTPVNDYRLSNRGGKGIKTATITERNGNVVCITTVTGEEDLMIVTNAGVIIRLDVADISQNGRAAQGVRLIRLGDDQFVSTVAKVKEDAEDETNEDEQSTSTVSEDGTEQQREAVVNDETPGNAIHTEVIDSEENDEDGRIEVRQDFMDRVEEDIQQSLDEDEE

Compound	MIC [1] [µg/mL]	MIC [2] [µg/mL]	MIC [3] [µg/mL]	MIC [4] [µg/mL]	CC50 [5] [µg/mL]	ED50 [6] [mg/kg]	ED50 [7] [mg/kg]	ED50 [8] [mg/kg]	MIC [9] [µg/mL]	ED50 [10] [mg/kg]	MIC [11] [µg/mL]	MIC [12] [µg/mL]	MIC [13] [µg/mL]	MIC [14] [µg/mL]	ED50 [17] [mg/kg]	MIC [20] [µg/mL]	MIC [21] [µg/mL]	MIC [22] [µg/mL]	other results
Cc1c(N2C[C@@H]3CCN[C@@H]3C2)c(F)cn2c(=O)c(C(=O)O)cc(C3CC3)c12 (stereo in doubt; 45o)	0.05 (≈ 0.135 µM)	0.02 (≈ 0.0538 µM)	0.02 (≈ 0.0538 µM)	0.05 (≈ 0.135 µM)	0.1 (≈ 0.269 µM)	0.4	0.7	5	0.01 (≈ 0.0269 µM)	2.5	0.78 (≈ 2.1 µM)	0.05 (≈ 0.135 µM)	0.02 (≈ 0.0538 µM)	0.39 (≈ 1.05 µM)					
CN[C@H](CC(C)C)C(=O)N[C@H]1C(=O)N[C@@H](CC(N)=O)C(=O)N[C@H]2C(=O)N[C@H]3C(=O)N[C@H](C(=O)N[C@H](C(=O)O)c4cc(O)cc(O)c4-c4cc3ccc4O)[C@H](O)c3ccc(c(Cl)c3)Oc3cc2cc(c3O[C@@H]2O[C@H](CO)[C@@H](O)[C@H](O)[C@H]2O[C@H]2C[C@](C)(N)[C@H](O)[C@H](C)O2)Oc2ccc(cc2Cl)[C@H]1O [VANCOMYCIN]																			MIC [15]: > 128 µg/mL; MIC [16]: 32 µg/mL (≈ 22.1 µM)
Cc1c(N2C[C@@H]3CCCN[C@@H]3C2)c(F)cn2c(=O)c(C(=O)O)cc(C3CC3)c12 (stereo in doubt; 45n)	0.05 (≈ 0.13 µM)	0.05 (≈ 0.13 µM)	0.01 (≈ 0.0259 µM)	0.05 (≈ 0.13 µM)	0.3 (≈ 0.778 µM)	1	0.9	3.1	0.01 (≈ 0.0259 µM)	3.3	0.78 (≈ 2.02 µM)	0.1 (≈ 0.259 µM)	0.02 (≈ 0.0519 µM)	0.78 (≈ 2.02 µM)	36.4				
CC(NC(=O)C(C)N[C@H]1C[C@H](C)N(c2nc3c(-c4ccc(F)cc4F)cc(C(=O)O)c(=O)n3cc2F)C1)C(=O)O (stereo not given in full)						3.3	11.4	25.3		26.7									
CC(NC1CCN(c2nc3c(-c4ccc(F)cc4F)cc(C(=O)O)c(=O)n3cc2F)C1)C(=O)O (stereo not given)						< 2.5	2.7	14.4		16.6					68.8				ED50 [18]: 79.8 mg/kg; ED50 ([18]; Streptococcus pneumoniae, read-out: ED50): 164 mg/kg; ED50 [19]: 34.4 mg/kg
Cc1c(N2C[C@H]3CCC[C@@H](N)[C@H]3C2)c(F)cn2c(=O)c(C(=O)O)cc(C3CC3)c12	0.1 (≈ 0.25 µM)	0.01 (≈ 0.025 µM)	0.005 (≈ 0.0125 µM)	0.002 (≈ 0.00501 µM)			0.3	1.4	0.02 (≈ 0.0501 µM)		0.39 (≈ 0.976 µM)	0.02 (≈ 0.0501 µM)	0.005 (≈ 0.0125 µM)	0.1 (≈ 0.25 µM)		0.39 (≈ 0.976 µM)	6.2 (≈ 15.5 µM)	0.005 (≈ 0.0125 µM)	
Cc1c(N2CCC(CN)C2)c(F)cn2c(=O)c(C(=O)O)cc(C3CC3)c12 (stereo not given)	0.01 (≈ 0.0278 µM)	0.005 (≈ 0.0139 µM)	0.002 (≈ 0.00556 µM)	0.002 (≈ 0.00556 µM)	0.05 (≈ 0.139 µM)				0.005 (≈ 0.0139 µM)		0.39 (≈ 1.09 µM)	0.01 (≈ 0.0278 µM)	0.002 (≈ 0.00556 µM)	0.39 (≈ 1.09 µM)		0.1 (≈ 0.278 µM)	1.56 (≈ 4.34 µM)	0.002 (≈ 0.00556 µM)	MIC [15]: 0.03 µg/mL (≈ 0.0835 µM); MIC [16]: 0.015 µg/mL (≈ 0.0417 µM)
Cc1c(N2C[C@@H]3CCN[C@@H]3C2)c(F)cn2c(=O)c(C(=O)O)cc(C3CC3)c12 (stereo in doubt; (S,S)45o)	0.05 (≈ 0.135 µM)	0.02 (≈ 0.0538 µM)	0.05 (≈ 0.135 µM)	0.1 (≈ 0.269 µM)		0.8	1.5	5	0.01 (≈ 0.0269 µM)	> 10	0.39 (≈ 1.05 µM)	0.1 (≈ 0.269 µM)	0.05 (≈ 0.135 µM)	3.1 (≈ 8.35 µM)					
Cc1c(N2C[C@@H]3[C@@H](N)[C@@H]3C2)c(F)cn2c(=O)c(C(=O)O)cc(C3CC3)c12	0.02 (≈ 0.056 µM)	0.01 (≈ 0.028 µM)	0.02 (≈ 0.056 µM)	0.1 (≈ 0.28 µM)	0.3 (≈ 0.839 µM)	1.4	4.1	14.6	0.01 (≈ 0.028 µM)	> 10	0.78 (≈ 2.18 µM)	0.1 (≈ 0.28 µM)	0.02 (≈ 0.056 µM)	1.56 (≈ 4.37 µM)	> 50	0.2 (≈ 0.56 µM)	6.2 (≈ 17.3 µM)	0.1 (≈ 0.28 µM)	ED50 [18]: 6.7 mg/kg; ED50 [19]: 18 mg/kg
Cc1c(N2CC[C@@]3(C[C@H]3N)C2)c(F)cn2c(=O)c(C(=O)O)cc(C3CC3)c12	0.05 (≈ 0.135 µM)	0.01 (≈ 0.0269 µM)	0.005 (≈ 0.0135 µM)			1.9	1.5	6.3	0.01 (≈ 0.0269 µM)	12.8	0.78 (≈ 2.1 µM)	0.05 (≈ 0.135 µM)	0.01 (≈ 0.0269 µM)	0.39 (≈ 1.05 µM)		0.39 (≈ 1.05 µM)	6.2 (≈ 16.7 µM)	0.02 (≈ 0.0538 µM)	
